Reference: US20250345392A1, “ANNEXIN A1 LIQUID PHARMACEUTICAL COMPOSITION” (ResoTher Pharma A/S, priority 2022, published 2025)
Read-outs that look alike come from different tables or passages of the source. Ends that are not written are not given here.

Assay: Clinical test in humans, three 30-min i.v. infusions 8 hours apart, plasma PK
Format: in vivo
Details: human; for time of first measurable concentrations after the start of infusion: each infusion; for half-life / AUC(0-t) / AUC / Cmax / Tmax: in vivo, iv, three 30-min i.v. infusions 8 h apart; for half-life: after the last infusion; for AUC(0-t): read-out: AUC0-24
Method: A total of 8 subjects were included in each group. In each group, 6 subjects received the active treatment and 2 received the placebo. The active treatment was as follows in each group: • Group 9 received three 8 hours apart 30-min Peptide 1 intravenous (i.v.) infusions, wherein each i.v. infusion corresponded to a dose of 50 μg/kg. • Group 10 received three 8 hours apart 30-min Peptide 1 intravenous (i.v.) infusions, wherein each i.v. infusion corresponded to a dose of 100 μg/kg. • Group 11 received three 8 hours apart 30-min Peptide 1 intravenous (i.v.) infusions, wherein each i.v. infusion corresponded to a dose of 140 μg/kg. • Group 12 received three 8 hours apart 30-min Peptide 1 intravenous (i.v.) infusions, wherein each i.v. infusion corresponded to a dose of 200 μg/kg. • Group 13 received three 8 hours apart 30-min Peptide 1 intravenous (i.v.) infusions, wherein each i.v. infusion corresponded to a dose of 250 μg/kg.
The tested liquid pharmaceutical composition has a pH of 8.2-8.4, and comprises the following: • i) 5 mg/ml of Peptide 1, • ii) 4% (w/w) mannitol, • iii) 1% (w/w) sucrose, • iv) 0.01% (w/w) Polysorbate-80, • v) 10 mM glycyl-glycine, and • vi) sterile water for injection.
Venous whole blood samples were collected from all subjects.
Plasma samples were analyzed for Peptide 1 using validated Liquid chromatography—Tandem Mass spectrometry (LC-MS/MS) methods by Charles River Laboratories (CRL).
Derivation of PK parameters were carried out by PhinC Development using Phoenix WinNonlin® (Version Phoenix 8.1—Certara—Princeton—USA). A non-compartmental analysis (NCA) approach was chosen.
For the calculation of the PK parameters and characteristics the following rules were applied: • All the plasma concentrations validated by the bioanalytical laboratory and provided to the pharmacokinetics were used for the PK analysis. • The theoretical PK blood sampling time points were used. • At time points in the lag-time between time zero and the first concentration equal or above limit of quantification (LOQ), concentrations below the LOQ (BLQ) were set to zero (0). • Concentrations BLQ between 2 concentrations equal or above LOQ were considered as missing. • Trailing concentrations (at time point between time of last measurable concentrations and time of last blood sample) BLQ were not used in calculations. • For 3 infusions regimen, each infusion was considered separately and BLQ rules were applied for each infusion. […] If the pre-dose value was greater than 5% of Cmax, the subject was dropped from all statistical evaluations.
AUC0-tau was only calculated if there were at least 3 concentrations above LOQ. • AUC0-24: The area under the plasma concentration-time curve from time zero (pre-dose) to 24 h was calculated as the sum of the 3 AUC0-tau: AUC0-24=AUC0-tau1+AUC0-tau2+AUC0-tau3. • AUC0-t: The area under the concentration-time curve from time zero (pre-dose) to the time of last quantifiable concentration was calculated using a linear trapezoidal method after each administration (AUC0-t1, AUC0-t2 and AUC0-t3, where AUC0-t1 was AUC0-t corresponded to the AUC from pre-dose to the last measurable quantifiable concentration following the first infusion). AUC0-t was only calculated if there were at least 3 concentrations above LOQ. • ke: The terminal plasma elimination rate-constant was estimated from log-linear regression analysis of the terminal phase of the plasma concentration-time profile. The number of points included in the terminal phase was determined by visual inspection of the semi-log plots of the plasma concentration-time profiles. A minimum of 3 data points, including the last measured data point and excluding Cmax, had to be available for the regression. The correlation coefficient for the goodness of the fit of the regression line through the data points (r^2) had to be 0.8000 or higher, for the value to be considered reliable. […]

[1] = Group 12 (three infusions of 200 μg/kg)
[2] = Group 13 (three infusions of 250 μg/kg)
[3] = between 50 μg/kg t.i.d. and 250 μg/kg t.i.d. (dose increased by 5-fold)
[4] = between 100 μg/kg t.i.d. and 250 μg/kg t.i.d. (dose increased by 2.5-fold)
[5] = between 140 μg/kg t.i.d. and 250 μg/kg t.i.d. (dose increased by 1.8-fold)
[6] = between 200 μg/kg t.i.d. and 250 μg/kg t.i.d. (dose increased by 1.25-fold)
[7] = 100 ug/kg, 100 μg/kg each, mean
[8] = 140 ug/kg, 140 μg/kg each, mean
[9] = 200 ug/kg, 200 μg/kg each, mean
[10] = 250 ug/kg, 250 μg/kg each, mean

time up to which concentrations were measurable in all subjects after each infusion [1]: at least 4 h
time of first measurable concentrations after the start of infusion [1]: 0.16 h
time up to which concentrations were measurable in all subjects after each infusion [2]: at least 4 h
time of first measurable concentrations after the start of infusion [2]: 0.16 h
increase of GM of AUC0-24 [3]: 4.8 fold
increase of GM of Global Cmax [3]: 5.4 fold
increase of GM of AUC0-24 [4]: 2.1 fold
increase of GM of Global Cmax [4]: 2.2 fold
increase of GM of AUC0-24 [5]: 1.4 fold
increase of GM of Global Cmax [5]: 1.6 fold
increase of GM of AUC0-24 [6]: 0.9 fold
increase of GM of Global Cmax [6]: 1.0 fold
GM accumulation ratios on Cmax and AUC0-tau (between the first and the last infusion, dose range 50-250 μg/kg, no accumulation observed): around 1
half-life (50 ug/kg, 50 μg/kg each, GM): 1.37 h
AUC(0-t) (50 ug/kg, 50 μg/kg each, GM): 1560 ng·h/mL
AUC (50 ug/kg, 50 μg/kg each, GM, read-out: AUC0-t2): 416 ng·h/mL
AUC (50 ug/kg, 50 μg/kg each, GM, read-out: AUC0-t3): 433 ng·h/mL
AUC (50 ug/kg, 50 μg/kg each, GM, read-out: AUC0-tau2): 511 ng·h/mL
AUC (50 ug/kg, 50 μg/kg each, GM, read-out: AUC0-tau3): 538 ng·h/mL
Cmax (50 ug/kg, 50 μg/kg each, GM, read-out: Global Cmax): 420 ng/mL
Tmax (50 ug/kg, 50 μg/kg each, GM, read-out: Global tmax): 4.12 h
Tmax (50 ug/kg, 50 μg/kg each, GM, read-out: tmax3): 16.5 h
half-life (50 ug/kg, 50 μg/kg each, mean): 1.38 h
AUC(0-t) (50 ug/kg, 50 μg/kg each, mean): 1570 ng·h/mL
AUC (50 ug/kg, 50 μg/kg each, mean, read-out: AUC0-t1): 422 ng·h/mL
AUC (50 ug/kg, 50 μg/kg each, mean, read-out: AUC0-t2): 420 ng·h/mL
AUC (50 ug/kg, 50 μg/kg each, mean, read-out: AUC0-t3): 437 ng·h/mL
AUC (50 ug/kg, 50 μg/kg each, mean, read-out: AUC0-tau1): 513 ng·h/mL
Cmax (50 ug/kg, 50 μg/kg each, mean, read-out: Cmax3): 398 ng/mL
Cmax (50 ug/kg, 50 μg/kg each, mean, read-out: Global Cmax): 422 ng/mL
Tmax (50 ug/kg, 50 μg/kg each, median, read-out: Global tmax): 8.5 h
half-life (100 ug/kg, 100 μg/kg each, GM): 2.04 h
AUC (100 ug/kg, 100 μg/kg each, GM, read-out: AUC0-tau1): 1100 ng·h/mL
AUC (100 ug/kg, 100 μg/kg each, GM, read-out: AUC0-tau2): 1240 ng·h/mL
AUC (100 ug/kg, 100 μg/kg each, GM, read-out: AUC0-tau3): 1260 ng·h/mL
Cmax (100 ug/kg, 100 μg/kg each, GM, read-out: Global Cmax): 1020 ng/mL
Tmax (100 ug/kg, 100 μg/kg each, GM, read-out: Global tmax): 11.8 h
half-life [7]: 2.18 h
AUC(0-t) [7]: 3620 ng·h/mL
AUC (100 ug/kg, 100 μg/kg each, mean, read-out: AUC0-t2): 1130 ng·h/mL
AUC (100 ug/kg, 100 μg/kg each, mean, read-out: AUC0-t3): 1090 ng·h/mL
Tmax (100 ug/kg, 100 μg/kg each, median, read-out: Global tmax): 12.5 h
Tmax (100 ug/kg, 100 μg/kg each, median, read-out: tmax3): 16.5 h
AUC (140 ug/kg, 140 μg/kg each, GM, read-out: AUC0-t1): 1660 ng·h/mL
AUC (140 ug/kg, 140 μg/kg each, GM, read-out: AUC0-t2): 1760 ng·h/mL
AUC (140 ug/kg, 140 μg/kg each, GM, read-out: AUC0-tau1): 1740 ng·h/mL
AUC (140 ug/kg, 140 μg/kg each, GM, read-out: AUC0-tau2): 1850 ng·h/mL
AUC (140 ug/kg, 140 μg/kg each, GM, read-out: AUC0-tau3): 1690 ng·h/mL
Cmax (140 ug/kg, 140 μg/kg each, GM, read-out: Global Cmax): 1400 ng/mL
Tmax (140 ug/kg, 140 μg/kg each, GM, read-out: Global tmax): 3.29 h
half-life [8]: 1.94 h
AUC(0-t) [8]: 5410 ng·h/mL
AUC (140 ug/kg, 140 μg/kg each, mean, read-out: AUC0-t1): 1690 ng·h/mL
AUC (140 ug/kg, 140 μg/kg each, mean, read-out: AUC0-t2): 1870 ng·h/mL
AUC (140 ug/kg, 140 μg/kg each, mean, read-out: AUC0-t3): 1600 ng·h/mL
AUC (140 ug/kg, 140 μg/kg each, mean, read-out: AUC0-tau1): 1760 ng·h/mL
AUC (140 ug/kg, 140 μg/kg each, mean, read-out: AUC0-tau2): 1940 ng·h/mL
Cmax (140 ug/kg, 140 μg/kg each, mean, read-out: Global Cmax): 1430 ng/mL
Tmax (140 ug/kg, 140 μg/kg each, median, read-out: Global tmax): 8.41 h
Tmax (140 ug/kg, 140 μg/kg each, median, read-out: tmax3): 16.5 h
half-life (200 ug/kg, 200 μg/kg each, GM): 1.93 h
AUC(0-t) (200 ug/kg, 200 μg/kg each, GM): 8020 ng·h/mL
AUC (200 ug/kg, 200 μg/kg each, GM, read-out: AUC0-t2): 2560 ng·h/mL
AUC (200 ug/kg, 200 μg/kg each, GM, read-out: AUC0-t3): 2690 ng·h/mL
AUC (200 ug/kg, 200 μg/kg each, GM, read-out: AUC0-tau1): 2590 ng·h/mL
AUC (200 ug/kg, 200 μg/kg each, GM, read-out: AUC0-tau2): 2650 ng·h/mL
Cmax (200 ug/kg, 200 μg/kg each, GM, read-out: Global Cmax): 2350 ng/mL
Tmax (200 ug/kg, 200 μg/kg each, GM, read-out: Global tmax): 2.57 h
half-life [9]: 1.94 h
AUC(0-t) [9]: 8120 ng·h/mL
AUC (200 ug/kg, 200 μg/kg each, mean, read-out: AUC0-t1): 2520 ng·h/mL
AUC (200 ug/kg, 200 μg/kg each, mean, read-out: AUC0-t2): 2610 ng·h/mL
AUC (200 ug/kg, 200 μg/kg each, mean, read-out: AUC0-t3): 2720 ng·h/mL
AUC (200 ug/kg, 200 μg/kg each, mean, read-out: AUC0-tau1): 2620 ng·h/mL
AUC (200 ug/kg, 200 μg/kg each, mean, read-out: AUC0-tau2): 2690 ng·h/mL
AUC (200 ug/kg, 200 μg/kg each, mean, read-out: AUC0-tau3): 2810 ng·h/mL
Tmax (200 ug/kg, 200 μg/kg each, median, read-out: Global tmax): 4.5 h
Tmax (200 ug/kg, 200 μg/kg each, median, read-out: tmax3): 16.5 h
AUC(0-t) (250 ug/kg, 250 μg/kg each, GM): 7490 ng·h/mL
AUC (250 ug/kg, 250 μg/kg each, GM, read-out: AUC0-t3): 2410 ng·h/mL
AUC (250 ug/kg, 250 μg/kg each, GM, read-out: AUC0-tau1): 2590 ng·h/mL
AUC (250 ug/kg, 250 μg/kg each, GM, read-out: AUC0-tau2): 2390 ng·h/mL
Cmax (250 ug/kg, 250 μg/kg each, GM, read-out: Global Cmax): 2260 ng/mL
Tmax (250 ug/kg, 250 μg/kg each, GM, read-out: Global tmax): 3.69 h
Tmax (250 ug/kg, 250 μg/kg each, GM, read-out: tmax1): 0.46 h
half-life [10]: 1.88 h
AUC(0-t) [10]: 7550 ng·h/mL
AUC (250 ug/kg, 250 μg/kg each, mean, read-out: AUC0-t1): 2540 ng·h/mL
AUC (250 ug/kg, 250 μg/kg each, mean, read-out: AUC0-t2): 2350 ng·h/mL
Substance: AMVSEFLKQAWFIENEEQEYVQTLKSSKGGPGSAVSPYPTFNPSSDV-NH2 [Peptide 1]
